Source: US20240140962A1, “5,6-DIHYDROTHIENO[3,4-H]QUINAZOLINE COMPOUND” (MEDSHINE DISCOVERY INC., priority 2021, published 2024)
Like-named read-outs stand apart in the source and are kept apart here.

What was measured:
PLK2 = PLK2 (Homo sapiens (Human), UniProt Q9NYY3); experiment: PLK2 kinase activity in vitro, 33P isotope-labeled kinase activity test; format: biochemical; conditions: 33P-ATP 30 μM, PLK2 15 nM
Description: (§1) The ^33P isotope-labeled kinase activity test (Reaction Biology Corp) was used to determine the IC50 value to evaluate the inhibitory ability of the test compound to the human PLK family protein kinase PLK2/PLK3/PLK4.
(§2) Buffer conditions: 20 mM HEPES (pH 7.5), 10 mM MgC2, 1 mM EGTA, 0.01% Brij35, 0.02 mg/ml BSA, 0.1 mM Na3VO4, 2 mM DTT, 1% DMSO.
(§3) Test steps: At room temperature, the compounds to be tested were dissolved in DMSO to prepare a 10 mM solution for use. The substrate Casein was dissolved in the freshly prepared buffer (with a final concentration of 20 μM), and the tested PLK2/PLK3/PLK4 kinases (with a final concentration of 15/10/150 nM, respectively) were added thereto and mixed well. The acoustic wave pipetting system Echo 550 was used to add the mother solution of the test compound dissolved in DMSO to the above mixed reaction mixture according to the set final concentration gradient (the highest final concentration was 1 μM, 3-fold dilution, 10 gradients). After incubation at room temperature for 20 minutes, ^33P-ATP (with a final concentration of 30/50/10 μM, respectively) was added, then after incubation at room temperature for 120 minutes, the reaction mixture was spotted on P81 ion exchange filter paper (Whatman #3698-915).

PLK3 = PLK3 (Homo sapiens (Human), UniProt Q9H4B4); experiment: PLK3 kinase activity in vitro, 33P isotope-labeled kinase activity test; format: biochemical; conditions: 33P-ATP 50 μM, PLK3 10 nM
Description: as §1, §2, §3

PLK4 = PLK4 (Homo sapiens (Human), UniProt O00444); experiment: PLK4 kinase activity in vitro, 33P isotope-labeled kinase activity test; format: biochemical; conditions: 33P-ATP 10 μM, PLK4 150 nM
Description: as §1, §2, §3

HCT116 cells = experiment: HCT116 cytological activity in vitro (3D CellTiter-Glo proliferation); format: cell-based, human; conditions: Homo sapiens, HCT-116, 120 h, 5 days culture, ultra-low adsorption plates
Description: McCoy's 5A medium, penicillin/streptomycin antibiotics was purchased from Vicente, and fetal bovine serum was purchased from Biosera. 3D CellTiter-Glo (cell viability chemiluminescence assay reagent) reagent was purchased from Promega. HCT116 cell line was purchased from Nanjing Cobioer Biosciences Co., Ltd. Envision multimode microplate reader (PerkinElmer).
HCT116 cells were seeded in ultra-low adsorption 96-well U-plates, 80 μL of cell suspension per well, which contained 1000 HCT116 cells. Cell plates were cultured overnight in a carbon dioxide incubator.
The compound to be tested was 5-fold diluted to the 9th concentration with a pipette, that is, diluted from 2 mM to 5.12 nM, and a double-well experiment was set up. 78 μL of medium was added to the intermediate plate, and then 2 μL of each well of the gradient diluted compound was transferred to the intermediate plate according to the corresponding position, 20 μL of each well was transferred to the cell plate after mixing well. Compound concentrations transferred to cell plates ranged from 10 μM to 0.0256 nM. Cell plates were cultured in a carbon dioxide incubator for 5 days. Another cell plate was prepared, and the signal value was read as the maximum value (Max value in the following equation) on the day of drug addition to participate in data analysis.
Every 100 μL of cell viability chemiluminescent detection reagent was added to the cell plate, and incubated at room temperature for 10 minutes to stabilize the luminescent signal. A multimode microplate reader was used to read.
The equation (Sample−Min)/(Max−Min)*100% was used to convert the original data into an inhibition rate, and the value of IC50 can be obtained by curve fitting with four parameters (“log(inhibitor) vs. response in GraphPad Prism—Variable slope” mode). Table 3 provides the inhibitory activity of the compounds of the present disclosure against the proliferation of HCT116 cells.

[1] = Pharmacokinetic study in CD-1 male mice by oral administration and intravenous injection; format: in vivo; conditions: mouse, plasma; for AUC(0-t): read-out: Area under the plasma concentration-time curve AUC0-24 h
Excerpt: The purpose of this experiment is to study the pharmacokinetics of the test compound in the plasma of CD-1 male mice after intravenous injection and oral administration.
Intravenous injection group: an appropriate amount of the test compound was weighed and dissolved in 20% SBE-b-CD aqueous solution and the pH was adjusted to 4 to 5 with 6 M hydrochloric acid, and the mixture was vortexed for 2, minutes to obtain a clear solution, and then pH was adjusted around 7 with 5 N sodium hydroxide, and the mixture was vortexed for 1 minute to prepare a 1.5 mg/mL clear solution, which was filtered through a 0.22 μm microporous membrane for later use. CD-1 male mice from 6 to 10 weeks old were selected and given a solution of the test compound intravenously. Samples were collected at 0.083, 0.25, 0.5, 1, 2, 4, 6, 8, and 24 hours.
Oral administration group: an appropriate amount of the test compound was weighed and dissolved in 20% SBE-b-CD aqueous solution, and the pH was adjusted to 3 to 4 with 6 M hydrochloric acid, and the mixture was vortexed for 2, minutes to obtain a clear solution, and then pH was adjusted around 7 with 5 N sodium hydroxide, and mixture was vortexed for 1 minute to prepare a 2.0 mg/mL clear solution for later use. CD-1 male mice between 6 and 10 weeks of age were selected and given the test compounds orally. Samples were collected at 0.25, 0.5, 1, 2, 4, 6, 8, 10, and 24 hours.
Approximately 50 μL of whole blood was collected through the jugular vein at each time point for plasma preparation for concentration determination by high performance liquid chromatography-tandem mass spectrometry (LC-MS/MS). All animals were euthanized under CO2 anesthesia after collecting the PK samples at the last time point. The plasma concentration was processed using the non-compartmental model of WinNonlin™ Version 6.3 (Pharsight, Mountain View, CA) pharmacokinetic software, and the pharmacokinetic parameters were calculated using the linear logarithmic trapezoidal method, and the experimental results are shown in Table 4.

[2] = system: human colon cancer HCT116 cells subcutaneous xenograft tumor; experiment: In vivo pharmacodynamic study, subcutaneous xenograft tumor model of human colon cancer HCT116 cells; set-up: species or system BALB/c Nude mouse; conditions: tumor volume on day 22 after dosing
Description: In this experiment, human colon cancer HCT116 cells were subcutaneously transplanted into BALB/c Nude mouse model to evaluate the antitumor effect of the test compound in vivo.
HCT116 cell culture: 10% fetal calf serum was added to McCoy's 5A medium and cultured in 37° C. 5% CO2 cell incubator. When the cell saturation reached 80% to 90% and the number reached the requirement, cells were collected, counted and inoculated subcutaneously into BALB/c Nude mice (female, 6 to 7 weeks old)
When the tumors grew to a certain size, the animals with tumor volumes that were too large, too small, or with irregular tumor shapes were eliminated, and animals with tumor volumes ranging from 103.12 to 174.35 mm^3 were selected. According to the tumor volume, the animals were divided into 6 groups by random block method, and each group was composed of 6 mice wherein the average volume of the tumor was about 147.12 mm^3 , and the experimental grouping and dosing regimen were shown in Table 5 below. The health status and death of the animals were monitored every day. Routine inspections included observation of tumor growth and the effects of drug treatment on the daily behavior of the animals, such as behavioral activities, food and water intake, body weight changes (measured twice a week), tumor size (tumor volume was measured twice a week), appearance signs or other abnormal conditions.
The formula for calculating tumor volume (TV) was: ½×a×b^2, where a and b were the measured length and width of the tumor, respectively. The formula for calculating the tumor inhibition rate TGI (%) was: TGI (%)=[1−(average tumor volume at the end of administration of a certain treatment group−average tumor volume at the beginning of administration of this treatment group)/(average tumor volume at the end of treatment of the solvent control group−average tumor volume at the beginning of treatment in solvent control group)]×100%.
In this study, the experimental data were expressed as Mean±SEM. Statistical analysis was based on the data of RTV at the end of the experiment using IBM SPSS Statistics software. The comparison between two groups was analyzed by T test, and the comparison between three or more groups was analyzed by one-way ANOVA. If the variances were homogeneous (the F value had no significant difference), the Tukey's method was used for analysis. If the variances were not homogeneous (the F value had significant differences), and the Games-Howell method was used for testing. p<0.05 was considered as a significant difference.

PLK4, sequence (O00444 whole entry): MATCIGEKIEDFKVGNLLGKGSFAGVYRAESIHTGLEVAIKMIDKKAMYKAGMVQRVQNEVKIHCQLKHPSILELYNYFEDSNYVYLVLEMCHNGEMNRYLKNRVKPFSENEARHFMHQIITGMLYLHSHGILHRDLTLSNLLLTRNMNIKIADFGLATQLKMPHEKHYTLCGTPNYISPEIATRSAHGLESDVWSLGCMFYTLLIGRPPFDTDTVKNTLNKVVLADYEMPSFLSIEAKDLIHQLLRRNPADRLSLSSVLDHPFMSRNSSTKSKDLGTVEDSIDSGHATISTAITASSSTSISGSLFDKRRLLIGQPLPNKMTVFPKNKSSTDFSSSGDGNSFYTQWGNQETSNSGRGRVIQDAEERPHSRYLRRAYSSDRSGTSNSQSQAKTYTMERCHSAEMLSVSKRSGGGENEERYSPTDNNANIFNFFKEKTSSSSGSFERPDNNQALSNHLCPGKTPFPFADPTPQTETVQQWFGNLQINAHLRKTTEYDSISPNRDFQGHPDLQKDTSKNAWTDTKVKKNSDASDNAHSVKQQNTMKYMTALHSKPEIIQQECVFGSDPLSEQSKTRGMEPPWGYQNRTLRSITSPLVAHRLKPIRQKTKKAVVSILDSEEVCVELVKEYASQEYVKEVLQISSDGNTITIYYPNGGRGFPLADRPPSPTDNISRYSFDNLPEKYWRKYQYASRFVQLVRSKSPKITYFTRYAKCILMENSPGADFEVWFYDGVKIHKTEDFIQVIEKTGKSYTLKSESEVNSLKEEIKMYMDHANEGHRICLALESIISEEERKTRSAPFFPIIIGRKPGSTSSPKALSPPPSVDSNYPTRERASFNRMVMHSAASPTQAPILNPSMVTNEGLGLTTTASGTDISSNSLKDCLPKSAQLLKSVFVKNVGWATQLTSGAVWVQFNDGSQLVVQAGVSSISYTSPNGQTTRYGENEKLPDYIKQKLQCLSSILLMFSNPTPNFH
PLK2, sequence (Q9NYY3 whole entry): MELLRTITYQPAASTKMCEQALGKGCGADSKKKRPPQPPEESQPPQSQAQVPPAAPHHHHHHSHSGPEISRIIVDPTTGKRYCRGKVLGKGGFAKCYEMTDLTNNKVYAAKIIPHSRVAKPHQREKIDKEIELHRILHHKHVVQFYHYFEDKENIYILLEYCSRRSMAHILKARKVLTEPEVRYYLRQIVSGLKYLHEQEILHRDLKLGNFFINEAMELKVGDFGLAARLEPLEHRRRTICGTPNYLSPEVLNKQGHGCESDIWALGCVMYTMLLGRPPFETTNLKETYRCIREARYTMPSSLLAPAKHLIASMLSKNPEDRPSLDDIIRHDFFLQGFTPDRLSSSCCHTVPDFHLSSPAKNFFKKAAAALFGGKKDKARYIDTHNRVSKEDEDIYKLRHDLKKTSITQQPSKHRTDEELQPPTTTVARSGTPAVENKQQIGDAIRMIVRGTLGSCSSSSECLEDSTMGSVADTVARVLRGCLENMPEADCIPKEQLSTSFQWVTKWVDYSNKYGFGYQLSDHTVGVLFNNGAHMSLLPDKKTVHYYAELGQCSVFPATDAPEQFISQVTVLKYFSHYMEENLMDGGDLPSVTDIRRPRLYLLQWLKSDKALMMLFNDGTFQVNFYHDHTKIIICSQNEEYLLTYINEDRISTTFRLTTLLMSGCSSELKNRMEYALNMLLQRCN
PLK3, sequence (Q9H4B4 whole entry): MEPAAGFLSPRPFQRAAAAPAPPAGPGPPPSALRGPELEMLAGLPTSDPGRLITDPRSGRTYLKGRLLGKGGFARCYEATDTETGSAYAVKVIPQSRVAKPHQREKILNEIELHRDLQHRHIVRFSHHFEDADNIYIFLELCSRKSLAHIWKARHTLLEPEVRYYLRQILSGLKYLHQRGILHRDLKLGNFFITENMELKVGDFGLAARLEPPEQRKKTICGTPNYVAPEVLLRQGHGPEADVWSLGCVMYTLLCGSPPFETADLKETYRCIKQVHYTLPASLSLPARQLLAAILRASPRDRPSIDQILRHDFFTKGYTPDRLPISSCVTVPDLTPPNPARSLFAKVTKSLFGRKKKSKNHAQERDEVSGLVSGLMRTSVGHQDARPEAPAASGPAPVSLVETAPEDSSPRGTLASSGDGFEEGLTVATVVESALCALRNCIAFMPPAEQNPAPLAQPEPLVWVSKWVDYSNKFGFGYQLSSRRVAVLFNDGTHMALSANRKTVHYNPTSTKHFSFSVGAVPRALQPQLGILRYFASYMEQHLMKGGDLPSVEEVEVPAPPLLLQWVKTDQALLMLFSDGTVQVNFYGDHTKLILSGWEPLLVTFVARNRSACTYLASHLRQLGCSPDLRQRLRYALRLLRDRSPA

In the case of `CSc1sc(C(N)=O)c2c1-c1nc(Nc3cc(N4CCN(C)CC4)ccc3OC(F)(F)F)ncc1CC2` [Compound 1], the IC50 (PLK2) is reported as over 10 µM, the IC50 (PLK3) is reported as over 10 µM and the IC50 (PLK4) is reported as over 10 µM. The IC50 (HCT116 cells) was 0.027 µM, the Vd ([1]; IV, 0.5 mg/kg, read-out: Apparent volume of distribution Vdss) was 3.37 L/kg and the AUC(0-t) ([1]; IV, 0.5 mg/kg) was 410 nM·h. For the same molecule, the clearance ([1]; IV, 0.5 mg/kg, read-out: Clearance CL) was 2.27 L/h/kg, the half-life ([1]; IV, 0.5 mg/kg, read-out: Half-life T½ (converted)) was 1.47 h and the AUC(0-t) ([1]; PO, 2.0 mg/kg) was 1050 nM·h. For the same molecule, the Cmax ([1]; PO, 2.0 mg/kg, read-out: Peak concentration Cmax) was 0.386 µM, the Tmax ([1]; PO, 2.0 mg/kg, read-out: Peak time Tmax) was 0.75 h and the bioavailability ([1]; PO 2.0 mg/kg vs IV 0.5 mg/kg, read-out: Bioavailability F) was 66.4%. It also gave a TGI ([2]; 30 mg/kg PO QD (5 days on, 2 days off)) of 72.9% and a TGI ([2]; 45 mg/kg PO QD (5 days on, 2 days off)) of 87.3%.
